Here are results for 51 compounds from publication PMC7290285 (Viruses, 2020).

For the test, the system named is ecotropic pseudo-typed lentiviral particles (luciferase) in PM1-mCat1 cells. The test can be described thus: Luciferase-based viral integration assay using PM1-mCat1 cells. Conditions: Human immunodeficiency virus 1, read-out: IC50 (in µM), viral integration assay.
For `O=S(=O)(c1ccc(CSc2ncnc3scc(-c4ccc(F)cc4)c23)o1)N1CCCC1` [T6366633, FC1=CC=C(C=C1)C1=CSC2=C1C(SCC1=CC=C(O1)S(=O)(=O)N1CCCC1)=NC=N2], the IC50 was 1.67 µM.
With `C=CCNC(=O)CN1CCN(c2nc3ccccc3s2)CC1` [T6471356, C=CCNC(=O)CN1CCN(CC1)C1=NC2=C(S1)C=CC=C2], the IC50 is 2.37 µM.
As for `c1csc(-c2csc3nc(CN4CCOCC4)nc(NCC4CCCO4)c23)c1` (stereo not drawn) [T6061512, C(NC1=C2C(SC=C2C2=CC=CS2)=NC(CN2CCOCC2)=N1)C1CCCO1], the IC50 was 6.48 µM.
As for `c1csc(-c2csc3nc(CN4CCOCC4)nc(NN4CCCCC4)c23)c1` [T6026407, C(N1CCOCC1)C1=NC2=C(C(=CS2)C2=CC=CS2)C(NN2CCCCC2)=N1], the figure is 2.73 µM; as for `COc1ccc(C2CCCN2C(=O)C2CC(=O)N(c3ccccc3F)C2)c(OC)c1` (stereo not drawn) [T6496714, COC1=CC(OC)=C(C=C1)C1CCCN1C(=O)C1CN(C(=O)C1)C1=C(F)C=CC=C1], 2.44 µM; as for `Cc1cnc2c(S(=O)(=O)N3CCN(Cc4ccc5c(c4)OCCO5)CC3)cccc2c1` [T6332191, CC1=CC2=C(N=C1)C(=CC=C2)S(=O)(=O)N1CCN(CC2=CC3=C(OCCO3)C=C2)CC1], 1.42 µM.
For the compound `O=C(CSc1nnc(C2CC2)o1)NC(c1ccccc1)c1cccs1` (stereo not drawn) [T5964141, O=C(CSC1=NN=C(O1)C1CC1)NC(C1=CC=CS1)C1=CC=CC=C1], the IC50 worked out at 1.26 µM.
On to `COc1ccc(N(Cc2ccccc2)S(=O)(=O)c2cccc(C(=O)NCc3ccncc3)c2)cc1` [T5435331, COC1=CC=C(C=C1)N(CC1=CC=CC=C1)S(=O)(=O)C1=CC(=CC=C1)C(=O)NCC1=CC=NC=C1], for which the IC50 was found to be 3.14 µM.
Regarding `CCOc1ccc(C(=O)Nc2cc(C)ccc2F)cc1` [T5869032, CCOC1=CC=C(C=C1)C(=O)NC1=C(F)C=CC(C)=C1], the IC50 was 1.1 µM.
As for `N#Cc1ccccc1S(=O)(=O)N1CCC(CCc2ccccc2)CC1` [T5952497, O=S(=O)(N1CCC(CCC2=CC=CC=C2)CC1)C1=C(C=CC=C1)C#N], the figure is 4.27 µM.
The same measure for `O=S(=O)(c1ccc(Oc2ncnc3scc(-c4ccc(F)cc4)c23)cc1)N1CCOCC1` [T5413794, FC1=CC=C(C=C1)C1=CSC2=C1C(OC1=CC=C(C=C1)S(=O)(=O)N1CCOCC1)=NC=N2]: 6.91 µM.
The same measure for `Cc1cc(Cl)c(C)c(S(=O)(=O)NCCCN2CCCC2=O)c1Cl` [T6312190, CC1=C(Cl)C(=C(C)C(Cl)=C1)S(=O)(=O)NCCCN1CCCC1=O]: 2.02 µM.
Regarding `c1ccc(CCNc2nc(CN3CCOCC3)nc3scc(-c4cccs4)c23)nc1` [T6312425, C(CC1=NC=CC=C1)NC1=C2C(SC=C2C2=CC=CS2)=NC(CN2CCOCC2)=N1], the IC50 is over 10 µM.
The same measure for `c1csc(-c2csc3nc(CN4CCOCC4)nc(N4CCCC4)c23)c1` [T5587925, C(N1CCOCC1)C1=NC2=C(C(=CS2)C2=CC=CS2)C(=N1)N1CCCC1]: 3.97 µM; for `O=C(COc1ccccc1-c1ccccc1)NCC1CCCCC1` [T5339957, O=C(COC1=C(C=CC=C1)C1=CC=CC=C1)NCC1CCCCC1]: 6.88 µM; for `O=C(COc1ccccc1-c1ccccc1)NCc1ccccc1Cn1cccn1` [T5945790, O=C(COC1=C(C=CC=C1)C1=CC=CC=C1)NCC1=C(CN2C=CC=N2)C=CC=C1]: 6.78 µM.
On to `CC(Nc1nc(CN2CCOCC2)nc2sc3c(c12)CCC3)c1cccc(Cl)c1` (stereo not drawn) [T5952126, CC(NC1=C2C3=C(CCC3)SC2=NC(CN2CCOCC2)=N1)C1=CC(Cl)=CC=C1], for which the IC50 was found to be 1.53 µM.
As for `O=C(Nc1ccccc1N1CCCC1)c1cc(S(=O)(=O)N2CCOCC2)ccc1Cl` [T6137813, ClC1=C(C=C(C=C1)S(=O)(=O)N1CCOCC1)C(=O)NC1=C(C=CC=C1)N1CCCC1], the figure is 5.04 µM; as for `Cc1nc(SCC(=O)NC(C)c2cccs2)c(C#N)c(C)c1C` (stereo not drawn) [T5788505, CC(NC(=O)CSC1=C(C#N)C(C)=C(C)C(C)=N1)C1=CC=CS1], 1.99 µM.
For the compound `CCC(C)c1ccc(S(=O)(=O)Nc2ccc(F)cc2C)cc1` (stereo not drawn) [T5989159, CCC(C)C1=CC=C(C=C1)S(=O)(=O)NC1=C(C)C=C(F)C=C1], the IC50 was 1.67 µM.
With `O=c1[nH]c(CSc2nnc(C3CC3)o2)nc2scc(-c3ccco3)c12` [T5983422, O=C1NC(CSC2=NN=C(O2)C2CC2)=NC2=C1C(=CS2)C1=CC=CO1], the IC50 stood at 2.28 µM.
The same measure for `O=C(CNc1ccccc1-c1ccccc1)Nc1ccccc1Cl` [T5943324, ClC1=C(NC(=O)CNC2=C(C=CC=C2)C2=CC=CC=C2)C=CC=C1]: 7.79 µM; for `CCn1c(SCC(=O)Nc2ccccc2C#N)nc2ccsc2c1=O` [T6068357, CCN1C(=O)C2=C(C=CS2)N=C1SCC(=O)NC1=C(C=CC=C1)C#N]: 1.49 µM.
In the case of `COc1ccc(S(=O)(=O)N(Cc2cccc(C(F)(F)F)c2)c2ccccc2OC)cc1` [T5407044, COC1=CC=C(C=C1)S(=O)(=O)N(CC1=CC(=CC=C1)C(F)(F)F)C1=C(OC)C=CC=C1], the IC50 amounted to 4.11 µM.
As for `COC(=O)c1ccc(C(=O)Nc2ncc(C)s2)cc1` [T5650116, COC(=O)C1=CC=C(C=C1)C(=O)NC1=NC=C(C)S1], the figure is 2.79 µM; as for `O=C(COc1ccccc1-c1ccccc1)NCc1ccccc1CN1CCOCC1` [T5781151, O=C(COC1=C(C=CC=C1)C1=CC=CC=C1)NCC1=C(CN2CCOCC2)C=CC=C1], 6.94 µM; as for `COC(=O)c1ccccc1NS(=O)(=O)c1c(F)cc(F)cc1Br` [T6007055, COC(=O)C1=C(NS(=O)(=O)C2=C(Br)C=C(F)C=C2F)C=CC=C1], 1.35 µM.
The same measure for `O=C(Nc1ccccc1O)c1ccccc1Br` [T6043692, OC1=C(NC(=O)C2=C(Br)C=CC=C2)C=CC=C1]: 4.11 µM.
As for `O=C(Nc1ccccc1-n1cccn1)c1ccccc1Br` [T6468172, BrC1=C(C=CC=C1)C(=O)NC1=C(C=CC=C1)N1C=CC=N1], the figure is 1.04 µM; as for `CCOc1ncccc1C(=O)OCc1nc(N)c2c(C)c(C)sc2n1` [T5776163, CCOC1=C(C=CC=N1)C(=O)OCC1=NC2=C(C(C)=C(C)S2)C(N)=N1], 4.7 µM.
For the compound `c1ccc(CNc2nc(CN3CCOCC3)nc3scc(-c4cccs4)c23)cc1` [T5605915, C(NC1=C2C(SC=C2C2=CC=CS2)=NC(CN2CCOCC2)=N1)C1=CC=CC=C1], the IC50 stood at 4.67 µM.
For `Cc1cccn2c(=O)cc(CN3CC(C(=O)N4CCCCC4)Oc4ccccc43)nc12` (stereo not drawn) [T5615894, CC1=CC=CN2C(=O)C=C(CN3CC(OC4=C3C=CC=C4)C(=O)N3CCCCC3)N=C12], the IC50 was determined as 2.93 µM.
Turning to `O=C(Nc1ccccc1N1CCCC1)c1cc(S(=O)(=O)N2CCOCC2)ccc1F` [T6382120, FC1=C(C=C(C=C1)S(=O)(=O)N1CCOCC1)C(=O)NC1=C(C=CC=C1)N1CCCC1], the IC50 was found to be 2.86 µM.
As to `O=c1c2ccccc2nc(CN2CCOCC2)n1Cc1nc(-c2ccc(F)cc2)cs1` [T5938605, FC1=CC=C(C=C1)C1=CSC(CN2C(CN3CCOCC3)=NC3=C(C=CC=C3)C2=O)=N1], the IC50 was determined as 8.71 µM.
The same measure for `CCc1ccc(-c2csc(Cn3c(CN4CCOCC4)nc4ccccc4c3=O)n2)cc1` [T5938606, CCC1=CC=C(C=C1)C1=CSC(CN2C(CN3CCOCC3)=NC3=C(C=CC=C3)C2=O)=N1]: 5.91 µM.
With `CCNC1=NN=C(c2cc(C)n(C3CC3)c2C)CS1` [T5633521, CCNC1=NN=C(CS1)C1=C(C)N(C2CC2)C(C)=C1], the IC50 is 1.05 µM.
As for `c1coc(-c2noc(CNc3ccccc3-n3cccn3)n2)c1` [T6671011, C(NC1=C(C=CC=C1)N1C=CC=N1)C1=NC(=NO1)C1=CC=CO1], the figure is 4 µM; as for `CN(C1CCCCC1)S(=O)(=O)c1cccc(C#N)c1` [T5339669, CN(C1CCCCC1)S(=O)(=O)C1=CC(=CC=C1)C#N], 5.2 µM; as for `c1ccc(-c2csc3nc(CN4CCOCC4)nc(NCCC4CCCO4)c23)cc1` (stereo not drawn) [T5948460, C(CC1CCCO1)NC1=C2C(SC=C2C2=CC=CC=C2)=NC(CN2CCOCC2)=N1], 2.33 µM.
As for `N#Cc1ccccc1S(=O)(=O)N1CCN(Cc2ccc(-c3ccccc3)cc2)CC1` [T5432718, O=S(=O)(N1CCN(CC2=CC=C(C=C2)C2=CC=CC=C2)CC1)C1=C(C=CC=C1)C#N], the figure is 6.33 µM.
As for `Cc1ccccc1-n1nnnc1SCc1nnc(-c2cccs2)o1` [T5805638, CC1=C(C=CC=C1)N1N=NN=C1SCC1=NN=C(O1)C1=CC=CS1], the figure is 1.45 µM; as for `Cc1cccc(C)c1NC(=O)CN1CCCC1c1nc2ccccc2s1` (stereo not drawn) [T5823772, CC1=CC=CC(C)=C1NC(=O)CN1CCCC1C1=NC2=C(S1)C=CC=C2], 8.88 µM; as for `O=C(Nc1ccc2c(c1)OCO2)c1cccc(N2CCCC2=O)c1` [T5821319, O=C(NC1=CC2=C(OCO2)C=C1)C1=CC(=CC=C1)N1CCCC1=O], 1.58 µM.
For `O=C(CSc1nc2ccccc2c(=O)n1Cc1ccco1)N1CCN(c2ccccc2)CC1` [T5344625, O=C(CSC1=NC2=C(C=CC=C2)C(=O)N1CC1=CC=CO1)N1CCN(CC1)C1=CC=CC=C1], the IC50 is 1.72 µM.
As to `CC(=O)c1ccccc1NC(=O)CNc1ccccc1-c1ccccc1` [T5989502, CC(=O)C1=C(NC(=O)CNC2=C(C=CC=C2)C2=CC=CC=C2)C=CC=C1], the IC50 amounted to 1.94 µM.
As for `COc1ccc(NS(=O)(=O)c2cccc(C(=O)NCC(c3ccc(OC)cc3)N3CCCCC3)c2)cc1` (stereo not drawn) [T6213020, COC1=CC=C(NS(=O)(=O)C2=CC(=CC=C2)C(=O)NCC(N2CCCCC2)C2=CC=C(OC)C=C2)C=C1], the figure is 2.79 µM; as for `Clc1cccc(Nc2nc(CN3CCOCC3)nc3scc(-c4ccccc4)c23)c1` [T5363639, ClC1=CC(NC2=C3C(SC=C3C3=CC=CC=C3)=NC(CN3CCOCC3)=N2)=CC=C1], 2 µM; as for `O=C(Nc1ccc2c(c1)OCCCO2)c1cccc(N2CCCC2=O)c1` [T5609721, O=C(NC1=CC2=C(OCCCO2)C=C1)C1=CC(=CC=C1)N1CCCC1=O], 4.12 µM.
With `Cc1ccccc1NC(=O)CNc1ccccc1-c1ccccc1` [T5947021, CC1=C(NC(=O)CNC2=C(C=CC=C2)C2=CC=CC=C2)C=CC=C1], the IC50 is 5.61 µM.
As for `Cc1nc(SCC(=O)NCCC(C)C)c(C#N)c(C)c1C` [T5989363, CC(C)CCNC(=O)CSC1=C(C#N)C(C)=C(C)C(C)=N1], the figure is 7.91 µM; as for `O=S(=O)(c1ccc(Sc2ncnc3scc(-c4ccc(F)cc4)c23)nc1)N1CCOCC1` [T5643556, FC1=CC=C(C=C1)C1=CSC2=C1C(SC1=NC=C(C=C1)S(=O)(=O)N1CCOCC1)=NC=N2], 6.19 µM.
